# Where two headings read alike, the source gives them in different places.
# Legend:
# [1] = tested on: B16F10 melanoma cells; conditions: intratumorally
# Method: Groups of C57BL6/J mice (n=5) were implanted subcutaneously with B16F10 melanoma cells into the right flank on day 0. On day 6, 9, 12, and 15, mice were treated intratumorally with anti-CTLA4 antibody or DMXAA, or the combination of both anti-CTLA4 antibody and DMXAA. […] Data are shown as mean±SEM.
# Female C57BL6 mice at the age of 7-8 weeks were implanted on day 0 with 10^6 of B16F10 melanoma cells (ATCC CRL-6475) subcutaneously on their right flanks. On day 6, tumors were measured and mice were regrouped so that each group (n=5) had similar average tumor volumes (˜120 mm^3). On day 6, 9, 12, 15, mice were treated intratumorally with 50 μg of anti-CTLA4 antibody (BioXcell, BE0614), or 50 μg of DMXAA (Sigma-Aldrich, D5817), or the combination of both the anti-CTLA4 antibody and DMXAA. Mock treated group were injected with PBS intratumorally. Tumor volumes were measured every 2-3 days and mouse survival was monitored daily.
# [2] = Subcutaneous dose escalation and repeat-dose tolerability study of Compound A in cynomolgus monkeys (priming and maintenance doses); assay type: in vivo
# Method: (§1) Male and female cynomolgus monkeys were assigned to groups and doses of Compound A were administered. Animals were dosed via subcutaneous injection at a volume of 2 mL/kg. The vehicle control article/diluent was phosphate-buffered saline (PBS).
# (§2) IFNα, TNFα, and IL-6 levels were measured at 3, 6, and 12 hours post-dosing. Dose related but variable changes were observed. […] IL-6 increases at 3 mg/kg and 10 mg/kg persisted at 12 hours postdose. TNFα levels increased at 3 hours in the 1 mg/kg group. […] The cytokine responses are consistent with the predicted STING pathway activation. Morbidity was observed within 1 day of administration of the 10 mg/kg/dose; as such, 3 mg/kg was selected as the high dose for the following repeat-dose phase (Phase II).
# (§3) In Phase II, 3 weekly administrations of 0.3 mg/kg of Compound A were tolerated. The 3 mg/kg dose in naïve animals was not tolerated and led to clinical observations of morbidity or death within 1 day of dosing. The findings were consistent with Compound A-mediated inflammatory response that was considered the probable cause of death.
# (§4) A priming dose of 0.1 mg/kg/day was administered 4 days prior to the first dose of 1.0 mg/kg/day Compound A to potentially allow a tolerance to develop to avoid the acute mortality noted during Phase II following administration of 3.0 mg/kg/day of Compound A to naïve animals. […] Increased plasma levels of IL-6 were noted 3 hours and 6 hours postdose.
# Edema is consistent with an inflammatory related pathology and the exaggerated pharmacology of the mode of action of Compound A. Administration of 3 weekly doses of 1.0 mg/kg/day (preceded by a priming dose of 0.1 mg/kg) or 0.6 mg/kg (without a priming dose) was tolerated. Animals tolerated an escalation to 3.0 mg/kg in Phase I, due to previous administrations at lower levels that allowed a tolerance to develop.
# [3] = tested on: STING pathway; test: Plasma cytokine and chemokine levels after subcutaneous Compound A in cynomolgus monkeys; assay type: in vivo; conditions: for plasma levels of IL-6: 3 hours and 6 hours postdose; for plasma IFNα levels: male or female
# Method: as §1, §2, §3, §4
# [4] = Exposure (Cmax, AUC) of Compound A in cynomolgus monkeys; assay type: in vivo
# Method: as §1, §3
# [5] = tested on: B16F10 melanoma cells; test: B16F10 melanoma tumor model in C57BL6 mice: Compound A with anti-CTLA4 and/or anti-PD-L1 antibody; assay type: in vivo
# Method: FIG. 2, panels A and B show the effect of a triple combination of Compound A (I.T.), PD-L1 antibody (I.P.), and anti-CTLA4 antibody (I.P.). Groups of C57BL6 mice (n=5) bearing B16F10 tumors were treated as indicated on day 6, 10, and 14 after tumor implantation. […] Data are shown as mean±SEM.
# In the same set of experiments, the combination of 0.3 μg of Compound A (I.T.) and 200 μg of anti-PD-L1 antibody (I.P.) was also tested with and without the combination of 200 μg of anti-CTLA4 antibody (I.P.).
# [6] = alone, day 6, 9, 12, 15: 50 μg anti-CTLA4 antibody or 50 μg DMXAA
# [7] = combination 50 μg anti-CTLA4 antibody and 50 μg DMXAA
# [8] = Phase I dose escalation, subcutaneous injection
# [9] = Phase II, 3 mg/kg dose in naïve animals
# [10] = alone, I.T., day 6, 10, 14: 0.3 μg Compound A or 50 μg anti-CTLA4 antibody
# [11] = combination 0.3 μg Compound A (I.T.) with 10 μg anti-CTLA4 antibody (I.T.)
# [12] = combination 0.3 μg Compound A (I.T.) with 50 μg anti-CTLA4 antibody (I.T.)
structure (smiles),measurement,setting,value
Cc1ccc2c(=O)c3cccc(CC(=O)O)c3oc2c1C [DMXAA],mice survival,[1]; [6],prolonged survival
same,tumor growth,[1]; [6],greatly suppressed tumor growth
same,controlling tumor growth compared to monotherapy,[1]; [7],significant improved effect
same,extending survival compared to monotherapy,[1]; [7],significant improved effect
Nc1nc2c(ncn2[C@@H]2O[C@@H]3COP(=O)(O)OC4C(O)[C@H](n5cnc6c(N)ncnc65)O[C@@H]4COP(=O)(O)OC2C3OCC(F)(F)F)c(=O)[nH]1 (stereo partly drawn) [Compound A],tolerability,[2]; 3 weekly doses of 0.6 mg/kg without a priming dose,tolerated
same,tolerability,[2]; 3 weekly doses of 1.0 mg/kg/day preceded by a priming dose of 0.1 mg/kg,tolerated
same,dose level tolerated on escalation,[2]; [8],up to 3.0 mg/kg/dose
same,findings on escalation up to 3.0 mg/kg/dose,[2]; [8],"limited to increased body temperature and elevated IFNα, IL-6, and TNFα cytokine levels"
same,time to morbidity after administration,"[2]; Phase I, 10 mg/kg/dose",≤ 1 days
same,time to morbidity or death after dosing,[2]; [9],≤ 1 days
same,tolerability,[2]; [9],not tolerated
same,tolerability,"[2]; Phase II, 3 weekly administrations of 0.3 mg/kg",tolerated
same,survival,"[2]; Phase III, three weekly doses of 0.6 or 1.0 mg/kg/day (1.0 preceded by priming dose of 0.1 mg/kg/day)",survived until scheduled sacrifice
same,compound-related findings,[2]; animals administered 0.6 or 1.0 mg/kg/day,limited to a transient body temperature increase and mild to moderate clinical and anatomic pathology findings
same,"dose not tolerated (acute morbidity and/or death, pulmonary edema)",[2]; naïve animals,≥ 3.0 mg/kg
same,IFNα levels,"[3]; Phase I, 1 mg/kg and 3 mg/kg groups, 3 hours and 6 hours post dosing",Moderate levels
same,TNFα levels,"[3]; Phase I, 1 mg/kg group, 3 hours",increased
same,TNFα levels,"[3]; Phase I, 3 mg/kg and 10 mg/kg groups",Lower levels
same,IFNα levels,"[3]; Phase I, 3 mg/kg and 10 mg/kg, 12 hours after dosing","decreased 12 hours after dosing, but did not return to pre-dose levels"
same,IL-6 increases,"[3]; Phase I, 3 mg/kg and 10 mg/kg, 12 hours postdose",persisted
same,IFNα levels,"[3]; Phase I, 10 mg/kg group",Higher levels
same,plasma IL-6 levels,"[3]; Phase I, all groups, 3 and 6 hours post dosing",Increases
same,"IL-12, G-CSF, and IFNγ levels",[3]; Phase II,sporadic increases
same,changes in pro-inflammatory cytokines and chemokines MCP-1 and IP-10,[3]; Phase II,suggestive of an inflammatory response with resolution by 24 hours postdose
same,"plasma IL-1ra, IL-6, and IFNα cytokine levels","[3]; Phase II, 3 mg/kg dose level, 3 and 6 hours",dose-dependent increases
same,plasma levels of IL-6,"[3]; Phase III, 0.1 mg/kg/day",Increased
same,IP-10,"[3]; Phase III, 0.1 mg/kg/day, 3 hours post dosing, male and female",Slight elevation
same,levels of TNFα,"[3]; Phase III, 0.1 mg/kg/day, 6 hours postdose in male, 3 and 6 hours postdose in female",Elevated levels
same,TNFα levels,"[3]; Phase III, 0.1 mg/kg/day, 24 hours post dosing",returned to non-detectable level
same,IL-6 levels,"[3]; Phase III, 0.1 mg/kg/day, 24 hours postdose",returned to a non-detectable level
same,plasma IFNα levels,"[3]; Phase III, 0.1 mg/kg/day",did not cause significant increase
same,plasma levels of IL-6,"[3]; Phase III, 0.6 mg/kg/day",Increased
same,levels of TNFα,"[3]; Phase III, 0.6 mg/kg/day, 6 hours postdose in male, 1.5, 3, and 6 hours postdose in female",Elevated levels
same,plasma IFNα levels,"[3]; Phase III, 0.6 mg/kg/day",did not cause significant increase
same,IP-10,"[3]; Phase III, 0.6 mg/kg/day, throughout the time course",No significant elevation
same,IP-10 level,"[3]; Phase III, 1 mg/kg/day, 1.5, 3, and 6 hours postdose",no increased IP-10 level
same,TNFα levels,"[3]; Phase III, 1 mg/kg/day, 1.5, 3, and 6 hours postdose, male and female",Elevated
same,IFNα levels,"[3]; Phase III, 1 mg/kg/day, 1.5 and 3 hours postdose",did not cause significant change
same,IL-6 levels,"[3]; Phase III, 1 mg/kg/day, 3 and 6 hours postdose, male and female",Marked increase
same,IFNα levels,"[3]; Phase III, 1 mg/kg/day, 6 hours postdose, male and female",elevated levels
same,"increase of exposure (mean Cmax, AUC0-2, AUC0-8, AUC0-24) with dose","[4]; 0.3 to 3 mg/kg/day, Day 1 of Phase II",generally dose-proportional
same,"sex differences in mean Cmax, AUC0-2, AUC0-8, and AUC0-24 values",[4]; male vs female,less than 2 fold
same,accumulation after multiple doses,[4]; multiple doses of 0.3 mg/kg/day,No accumulation
same,mouse survival,[5]; [10],extended mouse survival
same,tumor growth,[5]; [10],reduced tumor growth
same,mouse survival compared to both agents alone,[5]; [11],improved mouse survival
same,tumor growth compared to both agents alone,[5]; [11],further suppressed tumor growth
same,suppression of tumor growth compared to 0.3 μg Compound A (I.T.) with 200 μg anti-CTLA4 antibody (I.P.),[5]; [12],more effective
same,tumor remission,[5]; [12],more dramatic tumor remission
same,reduction in tumor growth compared to 0.3 μg Compound A (I.T.) with 50 μg anti-CTLA4 antibody (I.T.),[5]; combination 0.3 μg Compound A (I.T.) with 200 μg anti-CTLA4 antibody (I.P.),inferior
same,reduction in tumor growth compared to 0.3 μg Compound A (I.T.) with 50 μg anti-CTLA4 antibody (I.T.),[5]; combination 0.3 μg Compound A (I.T.) with 200 μg anti-PD-L1 antibody (I.P.),inferior
same,anti-tumor effect compared to 200 μg anti-CTLA4 antibody administered systemically,[5]; combination intratumoral Compound A with 10 μg anti-CTLA4 antibody (I.T.),similar
same,tumor size and overall survival compared to 200 μg anti-CTLA4 antibody administered systemically,[5]; combination intratumoral Compound A with 50 μg anti-CTLA4 antibody (I.T.),significant benefits
same,effect on tumor growth compared to 0.3 μg Compound A (I.T.) with 50 μg anti-CTLA4 antibody (I.T.),"[5]; triple combination 0.3 μg Compound A (I.T.), 200 μg anti-PD-L1 antibody (I.P.), 200 μg anti-CTLA4 antibody (I.P.)",comparable

# Reference: US20210380695A1, “STING AGONIST COMBINATION TREATMENTS WITH IMMUNE CHECKPOINT INHIBITORS” (ImmuneSensor Therapeutics, Inc., priority 2020, published 2021)
